Article PMC10298982, “Stability Characterization of the Novel Anti-Cancer HM-10/10 HDL-Mimetic Peptide” (International Journal of Molecular Sciences, 2023)
Ends that are not written are not given here.

Key:
[1] = Metabolic stability in CD-1 mouse liver microsomes; type: in vitro ADME
CYP2B6 = CYP2B6 induction (enzyme activity) in single-donor human hepatocytes; conditions: for Fold Increase (Enzyme Activity) Mean: mean of three lots
Description: The transport medium was replaced with 200 μL of warm (37 °C) incubation medium (InVitroGRO HI, BioIVT Catalog No. Z99009) and the plate was placed in a humidified 5% carbon dioxide incubator at 37 °C for 24 h.
In addition, test article vehicle (PBS) was added to warm (37°C) InVitroGRO HI Medium in a 5:95 (v:v) ratio. […] The plates were removed from the incubator and the hepatocytes were prepared for the induction assay by replacing the cell culture medium with medium containing either the test article, a control inducer, or vehicle control (200 µL per well). The hepatocyte plates were returned to the cell culture incubator and incubated for 24 h.
On Day 3, induction was repeated following the same steps as described above for the previous day, and plates were returned to the cell culture incubator for an additional 24 h.
After aliquots were taken to measure test article stability, all the remaining medium from each well in the hepatocyte plate was removed, all wells were washed once using 200 μL of blank assay buffer, and then 100 μL of the 1000-fold diluted substrate solutions were added to the appropriate wells. The assay plate was returned to the humidified 5% carbon dioxide incubator at 37 °C for 1 h incubation.
At the end of the incubation time, 100 μL of mRNA lysis buffer was added to each well to stop the reaction. Fifty microliters of this reaction mixture were transferred into a new plate and quenched with 200 μL of ice-cold acetonitrile containing a CYP-specific stable labeled internal standard (250 ng/mL acetaminophen-d4, 250 ng/mL hydroxybupropion-d6, or 250 ng/mL hydroxytestosterone-d3). After removal of the aliquots from the plate for enzyme activity determination, the assay plates were sealed and stored in a −70 °C freezer until use for RT-PCR, mRNA analysis.
For the induction assay samples, an aliquot (50 µL) of the supernatant was transferred to a new plate and diluted with 100 µL Milli-Q water. For the test article stability samples, an aliquot (50 µL) of the supernatant was transferred to a new plate and diluted with 60 µL 0.1% formic acid in Milli-Q water. These samples for the enzyme activity assay and article stability test were refrigerated for storage until analysis. […]
HM1010: Induction Potential of Cytochrome P450 Enzymes
(CYP1A2, CYP2B6 and CYP3A4) Using Human Cryopreserved Hepatocytes
Testing Facility Study No.
The purpose of this in-vitro study was to determine the induction potential of HM1010 on human
cytochrome P450 (CYP) isoenzyme (1A2, 2B6 and 3A4) activity. The study design is
Matrix: Inducible cryopreserved human hepatocytes three single-donor lots
Assay Buffer: InVitroGRO KHB
Substrates: Phenacetin (1A2), Bu propion (2B6), and Testosterone (3A4)
Assay conditions: 48 hours at 37°C in humidified 5% carbon dioxide incubator
Analysis: LC-MS/MS (enzyme activity) and mRNA analysis

CYP1A2 = CYP1A2 induction (mRNA expression) in single-donor human hepatocytes; type: in vitro ADME
Description: RNA isolation and quantification: E-Z 96 Total RNA Kit (Omega Bio-tek, Catalog No. R1034-02) was used for RNA isolation and Quant-iT RNA assay kit (ThermoFisher, Catalog No. Q33140) was used for RNA quantification. The plates were removed from a −80 °C freezer and equilibrated to room temperature. RNA was extracted using the manufacturer’s recommended protocol. Eighty-one microliters of 100% ethanol were added into each well containing 150 µL of lysed sample to make a final ethanol concentration at 35%.
cDNA generation: For cDNA generation, a High-Capacity cDNA Reverse Transcription Kit (Applied Biosystems, Catalog No. 4319983) and QuantStudio 3 PCR system (Applied Biosystems) were used. In this step, 2X Reverse Transcription Master Mix was prepared using the contents of the kit. Then, 10 µL of total RNA was added to 10 µL of 2X Reverse Transcription Master Mix in a microplate and the plate was sealed. This plate was then run in a thermocycler to generate cDNA.
Real time PCR: SsoAdvanced Universal SYBR® Green Supermix (BIO-RAD, Catalog No. 172-5270) and the QuantStudio 3 Real-Time PCR system (Applied Biosystems) were used to perform real-time PCR on the generated cDNA. In this step, a PCR mix was prepared using PCR Supermix, SYBR® primers for the targeted genes, and nuclease-free water. Two microliters of ten-fold diluted cDNA samples (5 µL of cDNA into 45 μL of nuclease-free water) were added to 8 µL of PCR Mix in a microplate and sealed. This plate was then run through the Real-Time PCR system to generate the mRNA expression data.
• Human GAPDH • F: […] • R: […] • Human CYP1A2 • Unique Assay ID: qHsaCID0015160 • Chromosome Location: 15:75045562-75047256 • Human CYP2B6 • F: […] • R: […] • Human CYP3A4 • F: […] • R: […]

CYP2C8 = biological target: T1, CYP2C8 (Homo sapiens, UniProt P10632); conditions: microsomes
T1 sequence (P10632 1-490): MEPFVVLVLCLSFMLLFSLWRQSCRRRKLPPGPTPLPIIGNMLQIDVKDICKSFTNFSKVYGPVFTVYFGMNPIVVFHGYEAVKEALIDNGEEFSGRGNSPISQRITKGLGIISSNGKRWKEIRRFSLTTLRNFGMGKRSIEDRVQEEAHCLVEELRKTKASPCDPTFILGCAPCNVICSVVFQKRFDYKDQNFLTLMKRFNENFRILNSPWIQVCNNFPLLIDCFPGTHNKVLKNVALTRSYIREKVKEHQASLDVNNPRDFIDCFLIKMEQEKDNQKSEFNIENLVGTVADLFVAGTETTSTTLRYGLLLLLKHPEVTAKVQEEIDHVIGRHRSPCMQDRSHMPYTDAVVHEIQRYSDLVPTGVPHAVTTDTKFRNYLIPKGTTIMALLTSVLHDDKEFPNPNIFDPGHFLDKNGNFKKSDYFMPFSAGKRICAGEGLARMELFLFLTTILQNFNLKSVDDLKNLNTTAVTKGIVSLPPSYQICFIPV

- CLint scaled ([1]; CD-1 mouse liver microsomes 0.5 mg protein/mL, 2 μM): 10.2 L/h/kg
- half-life at 2 µM ([1]; pooled liver microsomes, pH 7.4, CD-1 mouse liver microsomes 0.5 mg protein/mL): 32 min
- remaining at 2 h, 2 µM ([1]; pooled liver microsomes, pH 7.4, CD-1 mouse liver microsomes 0.5 mg protein/mL, read-out: % Remaining at 120 min): 0.8%
- Fold Increase (Enzyme Activity) Lot HH1086 (CYP2B6; 2 µM): 3.18 fold
- Fold Increase (Enzyme Activity) Lot HH1142 (CYP2B6; 2 µM): 2.82 fold
- Fold Increase (Enzyme Activity) Lot HH1144 (CYP2B6; 2 µM): 3.00 fold
- Fold Increase (Enzyme Activity) Mean (CYP2B6; 2 µM): 3.00 fold
- Fold Increase (Enzyme Activity) Lot HH1086 (CYP2B6; 10 µM): 4.01 fold
- Fold Increase (Enzyme Activity) Lot HH1142 (CYP2B6; 10 µM): 6.36 fold
- Fold Increase (Enzyme Activity) Lot HH1144 (CYP2B6; 10 µM): 4.52 fold
- Fold Increase (Enzyme Activity) Mean (CYP2B6; 10 µM): 4.96 fold
- Fold Increase (Enzyme Activity) Lot HH1086 (CYP2B6; 25 µM): 2.80 fold
- Fold Increase (Enzyme Activity) Lot HH1142 (CYP2B6; 25 µM): 9.29 fold
- Fold Increase (Enzyme Activity) Lot HH1144 (CYP2B6; 25 µM): 6.73 fold
- Fold Increase (Enzyme Activity) Mean (CYP2B6; 25 µM): 6.27 fold
- Fold Increase (mRNA Expression) Lot HH1086 (CYP1A2; 2 µM): 1.69 fold
- Fold Increase (mRNA Expression) Lot HH1142 (CYP1A2; 2 µM): 2.24 fold
- Fold Increase (mRNA Expression) Lot HH1144 (CYP1A2; 2 µM): 1.81 fold
- Fold Increase (mRNA Expression) Mean of 3 Lots (CYP1A2; 2 µM): 1.91 fold
- Comments (mRNA induction) (CYP1A2; 10 µM): Induction Observed
- Fold Increase (mRNA Expression) Lot HH1086 (CYP1A2; 10 µM): 2.75 fold
- Fold Increase (mRNA Expression) Lot HH1142 (CYP1A2; 10 µM): 3.24 fold
- Fold Increase (mRNA Expression) Lot HH1144 (CYP1A2; 10 µM): 1.75 fold
- Fold Increase (mRNA Expression) Mean of 3 Lots (CYP1A2; 10 µM): 2.58 fold
- Comments (mRNA induction) (CYP1A2; 25 µM): Induction Observed
- Fold Increase (mRNA Expression) Lot HH1086 (CYP1A2; 25 µM): 2.74 fold
- Fold Increase (mRNA Expression) Lot HH1142 (CYP1A2; 25 µM): 3.01 fold
- Fold Increase (mRNA Expression) Lot HH1144 (CYP1A2; 25 µM): 1.13 fold
- Fold Increase (mRNA Expression) Mean of 3 Lots (CYP1A2; 25 µM): 2.29 fold
- % Inhibition at 50 µM No PI + NADPH (CYP2C8): 18.7%
- % Inhibition at 50 µM No PI − NADPH (CYP2C8): 14.0%
- % Inhibition at 50 µM PI + NADPH (CYP2C8): 9.0%
- % Inhibition at 50 µM PI − NADPH (CYP2C8): 11.4%
Sequence: LRKLRKRLLRLVGRQLEEFL [HM-10/10, LRKLRKRLLRLVGRQLEEFL]
